Experimental data published in patent US20220362163A1, “METHODS AND COMPOSITIONS FOR CANCER TREATMENT USING NANOPARTICLES CONJUGATED WITH MULTIPLE LIGANDS FOR BINDING RECEPTORS ON NK CELLS” (The University of North Carolina at Chapel Hill, priority 2019, published 2022).

Tested on: A431 tumor
Assay: A431 tumor model in T-cell deficient Nu mice
Settings: i.v. at 6, 8, 10 days post-inoculation

Structure (SMILES): COc1cccc2c1C(=O)c1c(O)c3c(c(O)c1C2=O)C[C@@](O)(C(=O)CO)C[C@@H]3O[C@H]1C[C@H](N)[C@@H](O)[C@H](C)O1 [free EPI, epirubicin]
- effect on tumor growth: slightly reduced the rate of tumor growth
